Source: ChEMBL document CHEMBL3351963 (Bioorg Med Chem Lett, 2014)
Values after ≈ are worked out from the molar mass of the structure shown.

What was measured:
[1] = Stability in pH 7.4 buffer solution; format: physicochemical
[2] = Retention time of the compound by HPLC method; format: physicochemical
[3] = Stability in rat liver S9 fraction at 100 uM after 24 hrs in presence of 1 mM reduced glutathione at 37 degC by HPLC method; format: ADME, subcellular; conditions: s9, 24 h
[4] = Stability in presence of 1 mM reduced glutathione at 100 uM after 24 hrs at 37 degC by HPLC method; format: physicochemical
[5] = Stability in rat liver S9 fraction at 100 uM after 24 hrs in absence of 1 mM reduced glutathione at 37 degC by HPLC method; format: ADME; conditions: s9, 24 h
[6] = Prodrug conversion in rat liver S9 fraction assessed as half life for metformin formation at 100 uM in presence of 1 mM reduced glutathione by HPLC method; format: ADME, subcellular; conditions: gsh
Liver microsome = test: Prodrug conversion in rat liver microsomes assessed as half life for metformin formation at 100 uM in presence of a NADPH-regenerating system by HPLC method; format: ADME
Liver cytosol = test: Prodrug conversion in rat liver cytosol assessed as half life for metformin formation at 100 uM in presence of a NADPH-regenerating system by HPLC method; format: ADME, tissue-based
[7] = Prodrug conversion in human liver S9 fraction assessed as half life for metformin formation at 100 uM in presence of 1 mM reduced glutathione by HPLC method; format: ADME, subcellular; conditions: gsh
[8] = molecular target: T1, Glutathione S-transferase A1 (Homo sapiens, UniProt P08263); test: Prodrug conversion assessed as half life for human recombinant GST-A1-mediated metformin formation at 100 uM in presence of 1 mM reduced glutathione by HPLC method; format: ADME; conditions: gsh
T1 sequence (P08263 whole entry): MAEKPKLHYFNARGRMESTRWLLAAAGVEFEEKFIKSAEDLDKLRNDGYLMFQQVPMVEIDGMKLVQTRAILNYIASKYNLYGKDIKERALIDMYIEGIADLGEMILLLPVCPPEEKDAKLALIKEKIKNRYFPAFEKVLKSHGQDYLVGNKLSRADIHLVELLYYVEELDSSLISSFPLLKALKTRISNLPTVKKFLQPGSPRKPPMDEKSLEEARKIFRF

[9] = molecular target: T2, Glutathione S-transferase Mu 2 (Homo sapiens, UniProt P28161); test: Prodrug conversion assessed as half life for human recombinant GST-M2-mediated metformin formation at 100 uM in presence of 1 mM reduced glutathione by HPLC method; format: ADME; conditions: gsh
T2 sequence (P28161 whole entry): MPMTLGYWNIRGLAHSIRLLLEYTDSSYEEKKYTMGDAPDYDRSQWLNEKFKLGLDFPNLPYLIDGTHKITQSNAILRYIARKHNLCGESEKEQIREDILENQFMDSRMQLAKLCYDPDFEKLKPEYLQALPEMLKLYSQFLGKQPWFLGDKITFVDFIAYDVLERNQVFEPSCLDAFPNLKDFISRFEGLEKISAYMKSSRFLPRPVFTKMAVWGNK

[10] = molecular target: Glutathione S-transferase P (Homo sapiens, UniProt P09211); test: Prodrug conversion assessed as half life for human recombinant GST-P1-mediated metformin formation at 100 uM in presence of 1 mM reduced glutathione by HPLC method; format: ADME; conditions: gsh
[11] = Prodrug conversion in rat liver S9 fraction assessed as […] GST-mediated metformin formation at 10 to 200 uM in presence of 1 mM reduced glutathione by Michaelis-Menten method; format: ADME, subcellular; conditions: s9, 200 µM
[12] = Distribution coefficient, logD of the compound in mixture of 1-octanol and 50 mM phosphate buffer pH 7.4 by HPLC method; format: physicochemical; conditions: 1-octanol/50 mM phosphate buffer
[13] = Aqueous solubility in pure water incubated for 1 hr by HPLC based shake flask method; format: physicochemical
[14] = Stability in pH 1.0 HCl buffer solution measured over 3 weeks by HPLC method; format: physicochemical; conditions: pH 1, 504 h
Intestine = test: Stability in rat small intestine homogenates by HPLC method; format: ADME, tissue-based; conditions: tissue homogenate

Glutathione S-transferase P, sequence (P09211 whole entry): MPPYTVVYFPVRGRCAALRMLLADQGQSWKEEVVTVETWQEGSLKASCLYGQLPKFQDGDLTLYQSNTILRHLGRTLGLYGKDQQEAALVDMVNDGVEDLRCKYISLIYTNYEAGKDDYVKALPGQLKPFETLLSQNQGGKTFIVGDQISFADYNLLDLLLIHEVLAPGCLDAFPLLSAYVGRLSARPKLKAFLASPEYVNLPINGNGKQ

| Compound | Stability [1] | Retention_time [2] [min] | Stability [3] | Km [11] [µM] | Vmax [11] [nmol/mg/min] | other results |
| --- | --- | --- | --- | --- | --- | --- |
| CN(C)C(=N)/N=C(\N)NS(=O)(=O)c1ccc(C(F)(F)F)cc1[N+](=O)[O-] | Stable | 3 | – | 106 | 8.86 | Stability [4]: Stable; Stability [5]: Stable; t1/2 [6]: 3.7668 h; t1/2 (Liver microsome): 9.4752 h; t1/2 (Liver cytosol): 4.6642 h; t1/2 [7]: 6.0382 h; t1/2 [8]: 6.337 h; t1/2 [9]: 6.1045 h; t1/2 [10]: 6.8675 h; logD [12]: 0.86; solubility thermodynamic at 1 h [13]: 360 µg/mL (≈ 942 µM); Stability [14]: Stable; Stability (Intestine): Stable |
| CN(C)C(=N)N=C(N)N [METFORMIN] | – | 15 | – | – | – | – |

Further lines, with some results ahead:

| Stability [1] | Retention_time [2] [min] | Stability [3] | Km [11] [µM] | Vmax [11] [nmol/mg/min] | Compound | other results |
| --- | --- | --- | --- | --- | --- | --- |
| Stable | 3 | Stable | – | – | CN(C)C(=N)/N=C(\N)NS(=O)(=O)c1ccccc1[N+](=O)[O-] | – |
| Stable | 3 | Stable | – | – | CN(C)C(=N)/N=C(\N)NS(=O)(=O)c1ccc([N+](=O)[O-])cc1 | – |
| – | – | – | 143 | 13.9 | CCC[C@@]1(CCc2ccccc2)CC(O)=C([C@H](CC)c2cccc(NS(=O)(=O)c3ccc(C#N)cn3)c2)C(=O)O1 | – |
